According to patent publication US9695219B2, “Polypeptide having antibacterial activity and angiogenesis-inducing activity and wound-healing drug containing said polypeptide” (priority 2009, dated 2017):
Converted amounts (≈) assume the structure as drawn.

Tests used:
Type in all cases: cell-based
Alternaria alternata = details: 37° C. for 20 hours; tested twice, first/second value where not matched
Experimental: (§1) Further, with respect to not only the above-described strains but also various other strains, the “minimum inhibitory concentration (MIC)” was measured as follows. MIC is the lowest concentration of an agent that may inhibit the growth of a bacterium. MIC is used as a parameter for the efficacy of an antibacterial agent, for the strength of bacterial sensitivity, or the like. The bacteria can grow (proliferate) when the concentration is not higher than MIC, and cannot grow when the concentration is higher than MIC. Its measurement is carried out according to a method defined as a standard method by Japanese Society of Chemotherapy or CLINICAL AND LABORATORY […] (CLSI), but, in this Example, its measurement was carried out by a broth microdilution method in accordance with “M100-S17/M7-A7” (Performance Standards for Antimicrobial Susceptibility Testing; Seventeenth Informational Supplement, Vol. 27 No. 1) published by CLSI on January, 2007. That is, sensitivity test of agents was carried out using a microtiter plate or test tubes.
(§2) The bacteria were cultured in liquid media for 4 to 6 hours, and thereafter absorbances at A600 were measured. Bacterial suspensions were diluted with Mueller-Hinton broth (MHB) according to McFarland #0.5. Each strain was added so as to attain about 10^5 CFU/ml (final concentration). Each peptide was prepared to an optional concentration, and the solutions were serially diluted from the concentration. The polypeptide at each concentration stage was added to a microplate or test tubes, and the bacterial suspension was added thereto. Chloramphenicol, amphotericin B, ciprofloxacin, meropenem (MEPM), ciprofloxacin (CPFX), tobramycin (TOB) and oxacillin (OX) were used as positive controls. The plate was incubated at 37° C. for 20 hours, and the lowest concentration where bacterial growth was inhibited was regarded as the minimum inhibitory concentration.

Candida krusei = details: 37° C. for 20 hours; tested twice, first/second value where not matched
Experimental: as §1, §2

Fusarium solani = details: 37° C. for 20 hours; tested twice, first/second value where not matched
Experimental: as §1, §2

[1] = tested on: Penicillium glabrum (Penicillium frequentans); details: 37° C. for 20 hours; tested twice, first/second value where not matched
Experimental: as §1, §2

[2] = tested on: Trichophyton mentagrophytes; details: 37° C. for 20 hours; tested twice, first/second value where not matched
Experimental: as §1, §2

Trichophyton rubrum = details: 37° C. for 20 hours; tested twice, first/second value where not matched
Experimental: as §1, §2

Bacillus subtilis = assay: microbe, parasite or virus in culture; details: 37° C. for 20 hours, tested twice, first/second value where not matched
Experimental: as §1, §2

Bacteroides fragilis = assay: microbe, parasite or virus in culture; details: Bacteroides fragilis; 37° C. for 20 hours; tested twice, first/second value where not matched
Experimental: as §1, §2

Clostridium ramosum = assay: microbe, parasite or virus in culture; details: Thomasclavelia ramosa; 37° C. for 20 hours; tested twice, first/second value where not matched
Experimental: as §1, §2

Enterococcus faecalis = assay: microbe, parasite or virus in culture; details: 37° C. for 20 hours, tested twice, first/second value where not matched
Experimental: as §1, §2

Fusobacterium nucleatum = assay: microbe, parasite or virus in culture; details: Fusobacterium nucleatum; 37° C. for 20 hours; tested twice, first/second value where not matched
Experimental: as §1, §2

Micrococcus luteus = assay: microbe, parasite or virus in culture; details: 37° C. for 20 hours, tested twice, first/second value where not matched
Experimental: as §1, §2

Salmonella enteritidis = assay: microbe, parasite or virus in culture; details: Salmonella enterica, 37° C. for 20 hours, tested twice, first/second value where not matched
Experimental: as §1, §2

Salmonella typhimurium = assay: microbe, parasite or virus in culture; details: Salmonella enterica, TYPHIMURIUM; 37° C. for 20 hours; tested twice, first/second value where not matched
Experimental: as §1, §2

Streptococcus pyogenes = assay: microbe, parasite or virus in culture; details: 37° C. for 20 hours, tested twice, first/second value where not matched
Experimental: as §1, §2

Acinetobacter baumanni = details: 37° C. for 20 hours; tested twice, first/second value where not matched
Experimental: as §1, §2

| Structure (SMILES) | MIC, Alternaria alternata (Alternaria alternata) [µg/mL] | MIC, Candida krusei (Candida krusei) [µg/mL] | MIC, Fusarium solani (Fusarium solani) [µg/mL] | MIC, Penicillium glabrum (Penicillium frequentans) [1] [µg/mL] | MIC, Trichophyton mentagrophytes [2] [µg/mL] | MIC, Trichophyton rubrum (Trichophyton rubrum) [µg/mL] | MIC (Bacillus subtilis) [µg/mL] | MIC (Bacteroides fragilis) [µg/mL] | MIC (Clostridium ramosum) [µg/mL] | MIC (Enterococcus faecalis) [µg/mL] | MIC (Fusobacterium nucleatum) [µg/mL] | MIC (Micrococcus luteus) [µg/mL] | MIC (Salmonella enteritidis) [µg/mL] | MIC (Salmonella typhimurium) [µg/mL] | MIC (Streptococcus pyogenes) [µg/mL] | MIC, Acinetobacter baumanni (Acinetobacter baumanni) |
| --- | --- | --- | --- | --- | --- | --- | --- | --- | --- | --- | --- | --- | --- | --- | --- | --- |
| C[C@@H]1[C@H](O)[C@@H](C)/C=C/C=C/C=C/C=C/C=C/C=C/C=C/[C@H](O[C@@H]2O[C@H](C)[C@@H](O)[C@H](N)[C@@H]2O)C[C@@H]2O[C@](O)(C[C@@H](O)C[C@@H](O)[C@H](O)CC[C@@H](O)C[C@@H](O)CC(=O)O[C@H]1C)C[C@H](O)[C@H]2C(=O)O [Amphotericin B, amphotericin B] | 1 (≈ 1.08 µM) | 2 (≈ 2.16 µM) | 1 (≈ 1.08 µM) | 0.125 (≈ 0.135 µM) | 0.125 (≈ 0.135 µM) | 0.25 (≈ 0.271 µM) |  |  |  |  |  |  |  |  |  |  |
| O=C(N[C@H](CO)[C@H](O)c1ccc([N+](=O)[O-])cc1)C(Cl)Cl [Chloramphenicol] |  |  |  |  |  |  | 4 (≈ 12.4 µM) | 1 (≈ 3.09 µM) | 4 (≈ 12.4 µM) | 4 (≈ 12.4 µM) | 0.25 (≈ 0.774 µM) | 1 (≈ 3.09 µM) | 4 (≈ 12.4 µM) | 4 (≈ 12.4 µM) | 2 (≈ 6.19 µM) | 16/32 |
